Target: T1, NS3-NS4A protease (Hepatitis C virus genotype 1a, UniProt P27958)
T1 construct: Recombinant E. coli or Baculovirus full-length NS3 was diluted to 3.33 μM with assay buffer; made in house; host or cells: E. coli or baculovirus (BV) system
Test: NS3-NS4A protease assay (NS3 inhibition assay, RETS1 substrate), Section B
Assay type: biochemical
Details: read-out: NS3-NS4A IC50
Procedure: NS3 complex formation with NS4A-2
Recombinant E. coli or Baculovirus full-length NS3 was diluted to 3.33 μM with assay buffer and the material transferred to an eppendorf tube and place in water bath in 4° C. refrigerator. The appropriate amount of NS4A-2 to 8.3 mM in assay buffer was added to equal the volume of NS3 in step 2.1.1 (conversion factor −3.8 mg/272 μL assay buffer). The material was transferred to an eppendorf tube and placed in a water bath in a 4° C. refrigerator.
After equilibration to 4° C., equal volumes of NS3 and NS4A-2 solutions were combined in an eppendorf tube, mixed gently with a manual pipettor, and the mixture incubated for 15 minutes in the 4° C. water bath. Final concentrations in the mixture were 1.67 μM NS3, 4.15 mM NS4A-2 (2485-fold molar excess NS4A-2).
After 15 minutes at 4° C., the NS3/NS4A-2 eppendorf tube was removed and placed in a room temperature water bath for 10 minutes. NS3/NS4A-2 was aliquoted at appropriate volumes and store at −80° C. (E. coli NS3 run at 2 nM in assay, aliquot at 25 μL. BV NS3 run at 3 nM in assay, aliquot at 30 μL.
Step 2.2.5. Sample compounds were dissolved to 10 mM in DMSO then diluted to 2.5 mM (1:4) in DMSO.
Step 2.2.6. The E. coli NS3/NS4A-2 was diluted to 4 nM NS3 (1:417.5 of 1.67 μM stock−18 μL 1.67 μM stock+7497 μL assay buffer).
The BV NS3/NS4A-2 was diluted to 6 nM NS3 (1:278.3 of 1.67 μM stock−24 μL 1.67 μM stock+6655 μL assay buffer).
Step 2.2.7. Using the manual multichannel pipettor, and being careful not to introduce bubbles into the plate, 50 μL assay buffer was added to wells A01-H01 of a black Costar 96-well polypropylene storage plate.
Step 2.2.8. Using the manual multichannel pipettor, and being careful not to introduce bubbles into the plate, 50 μL of diluted NS3/NS4A-2 from step 2.2.6 was added to wells A02-H12 of plate in step 2.2.7.
Step 2.2.9. Using the manual multichannel pipettor, and being careful not to introduce bubbles into the plate, 25 μL of the wells in drug dilution plate in step 2.2.5 were transferred to corresponding wells in assay plate in step 2.2.8. The tips on multichannel pipettor were changed for each row of compounds transferred.
Step 2.2.10. Using the manual multichannel pipettor, and being careful not to introduce bubbles into the plate, the wells from the assay plate in step 2.2.9 were mixed by aspirating and dispensing 35 μL of the 75 μL in each well five times. The tips on multichannel pipettor were changed for each row of wells mixed.
Step 2.2.11. The plate was covered with a polystyrene plate lid, and the plate from step 2.2.10 containing NS3 protease and sample compounds was pre-incubated 10 minutes at room temperature.
While the plate from step 2.2.11 was pre-incubating, the RETS1 substrate was diluted in a 15 mL polypropylene centrifuge tube. The RETS1 substrate was diluted to 8 μM (1:80.75 of 646 μM stock−65 μL 646 μM stock+5184 μL assay buffer).
After the plate in step 2.2.11 was done pre-incubating, and using the manual multichannel, 25 μL of substrate was added to all wells on the plate. The contents of the wells were quickly mixed, as in step 2.2.10, but mixing 65 μL of the 100 μL in the wells.
The plate was read in kinetic mode on the Molecular Devices SpectraMax Gemini XS plate reader. Reader settings: Read time: 30 minutes, Interval: 36 seconds, Reads: 51, Excitation λ: 335 nm, Emission λ: 495 nm, cutoff: 475 nm, Automix: off, Calibrate: once, PMT: high, Reads/well: 6, Vmax pts: 21 or 28/51 depending on length of linearity of reaction.
IC50s were determined using a four parameter curve fit equation, and converted to Ki's using the following Km's:
where Ki=IC50/(1+[S]/Km))

T1 sequence (P27958 1027-1657): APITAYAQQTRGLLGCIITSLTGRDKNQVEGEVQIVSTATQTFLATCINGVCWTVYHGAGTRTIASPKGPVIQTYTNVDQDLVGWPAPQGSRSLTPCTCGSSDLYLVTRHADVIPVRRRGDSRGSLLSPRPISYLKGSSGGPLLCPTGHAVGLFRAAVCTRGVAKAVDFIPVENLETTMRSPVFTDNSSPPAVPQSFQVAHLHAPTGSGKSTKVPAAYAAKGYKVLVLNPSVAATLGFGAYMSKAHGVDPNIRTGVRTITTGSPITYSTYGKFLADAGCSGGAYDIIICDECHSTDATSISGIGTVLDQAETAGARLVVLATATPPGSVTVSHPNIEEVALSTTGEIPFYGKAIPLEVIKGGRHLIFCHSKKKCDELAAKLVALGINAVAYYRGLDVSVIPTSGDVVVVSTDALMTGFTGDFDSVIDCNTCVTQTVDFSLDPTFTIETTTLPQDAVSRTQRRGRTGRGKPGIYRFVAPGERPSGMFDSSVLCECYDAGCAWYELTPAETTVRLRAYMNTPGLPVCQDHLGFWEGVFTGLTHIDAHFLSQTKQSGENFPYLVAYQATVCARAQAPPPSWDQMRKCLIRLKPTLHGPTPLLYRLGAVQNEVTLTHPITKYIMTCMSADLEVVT

`Cc1nc2c(s1)CN(C(=O)O[C@@H]1C[C@H]3C(=O)N[C@]4(C(=O)O)C[C@H]4/C=C\CCCCC[C@H](NC(=O)OC(C)(C)C)C(=O)N3C1)CC2` [AR00304158, (1S,4R,6S,14S,18R)-14-tert-Butoxycarbonylamino-18-(2-methyl-6,7-dihydro-4H-thiazolo[5,4-c]pyridine-5-carbonyloxy)-2,15-dioxo-3,16-diaza-tricyclo[14.3.0.0^4,6]nonadec-7-ene-4-carboxylic acid] and `CC(=O)Nc1nc2c(s1)CN(C(=O)O[C@@H]1C[C@H]3C(=O)N[C@]4(C(=O)O)C[C@H]4/C=C\CCCCC[C@H](NC(=O)OC(C)(C)C)C(=O)N3C1)CC2` [AR00314685, (1S,4R,6S,14S,18R)-18-(2-Acetylamino-6,7-dihydro-4H-thiazolo[5,4-c]pyridine-5-carbonyloxy)-14-tert-butoxycarbonylamino-2,15-dioxo-3,16-diaza-tricyclo[14.3.0.0^4,6]nonadec-7-ene-4-carboxylic acid] cannot be ordered by IC50: under 50 µM for the first, under 50 µM for the second.

`CC(C)(C)OC(=O)N[C@H]1CCCCC/C=C\[C@@H]2C[C@@]2(C(=O)O)NC(=O)[C@@H]2C[C@@H](NC(=O)N3CCCc4ccccc43)CN2C1=O` [AR00304160, (1S,4R,6S,14S,18R)-14-tert-Butoxycarbonylamino-18-[(3,4-dihydro-2H-quinoline-1-carbonyl)-amino]-2,15-dioxo-3,16-diaza-tricyclo[14.3.0.0^4,6]nonadec-7-ene-4-carboxylic acid] and `COc1ccccc1C1CCN(C(=O)O[C@@H]2C[C@H]3C(=O)N[C@]4(C(=O)O)C[C@H]4/C=C\CCCCC[C@H](NC(=O)OC(C)(C)C)C(=O)N3C2)CC1` [AR00320576, (1S,4R,6S,14S,18R)-14-tert-Butoxycarbonylamino-18-[4-(2-methoxy-phenyl)-piperidine-1-carbonyloxy]-2,15-dioxo-3,16-diaza-tricyclo[14.3.0.0^4,6]nonadec-7-ene-4-carboxylic acid] cannot be ordered by IC50: under 50 µM for the first, under 10 µM for the second.

`CC(C)(C)OC(=O)N[C@H]1CCCCC/C=C\[C@@H]2C[C@@]2(C(=O)O)NC(=O)[C@@H]2C[C@@H](OC(=O)N3CCc4ncncc4C3)CN2C1=O` [AR00304183, (1S,4R,6S,14S,18R)-14-tert-Butoxycarbonylamino-18-(7,8-dihydro-5H-pyrido[4,3-d]pyrimidine-6-carbonyloxy)-2,15-dioxo-3,16-diaza-tricyclo[14.3.0.0^4,6]nonadec-7-ene-4-carboxylic acid] and `CC(C)(C)OC(=O)N[C@H]1CCCCC/C=C\[C@@H]2C[C@@]2(C(=O)O)NC(=O)[C@@H]2C[C@@H](OC(=O)N3CCc4cc(N)ccc4C3)CN2C1=O` [AR00314578, (1S,4R,6S,14S,18R)-18-(6-Amino-3,4-dihydro-1H-isoquinoline-2-carbonyloxy)-14-tert-butoxycarbonylamino-2,15-dioxo-3,16-diaza-tricyclo[14.3.0.0^4,6]nonadec-7-ene-4-carboxylic acid] cannot be ordered by IC50: under 50 µM for the first, under 1 µM for the second.

`CC(C)(C)OC(=O)N[C@H]1CCCCCCC[C@@H]2C[C@@]2(C(=O)O)NC(=O)[C@@H]2C[C@@H](OC(=O)N3CCc4ccccc4C3)CN2C1=O` [AR00312023] and `O=C(NC1CCOC1)N[C@H]1CCCCC/C=C\[C@@H]2C[C@@]2(C(=O)O)NC(=O)[C@@H]2C[C@@H](OC(=O)N3CCc4ccccc4C3)CN2C1=O` (stereo partly drawn) [AR00320221, (1S,4R,6S,14S,18R)-18-(3,4-Dihydro-1H-isoquinoline-2-carbonyloxy)-2,15-dioxo-14-[3-(tetrahydro-furan-3-yl)-ureido]-3,16-diaza-tricyclo[14.3.0.0^4,6]nonadec-7-ene-4-carboxylic acid] cannot be ordered by IC50: under 1 µM for the first, under 1 µM for the second.

`O=C(N[C@H]1CCCCC/C=C\[C@@H]2C[C@@]2(C(=O)O)NC(=O)[C@@H]2C[C@@H](OC(=O)N3Cc4cc(Cl)c(Cl)cc4C3)CN2C1=O)O[C@@H]1CCOC1` [AR00320445, (1S,4R,6S,14S,18R)-18-(5,6-Dichloro-1,3-dihydro-isoindole-2-carbonyloxy)-2,15-dioxo-14-(tetrahydro-furan-3R-yloxycarbonylamino)-3,16-diaza-tricyclo[14.3.0.0^4,6]nonadec-7-ene-4-carboxylic acid] gave an IC50 of under 10 µM.
